Experimental data from patent US20160331853A1, “COMPOSITIONS FOR RADIOTHERAPY AND USES THEREOF” (The Trustees of Columbia University in the City of New York, priority 2014, published 2016).
Values joined by “and” are separate entries in the source; they are usually repeats but may differ in a detail not shown here. Equal entries are not always repeated.

Legend:
[1] = Example 2: Avidin and Avidin-Rhodamine binding to talc after PBS and 0.2% EDTA washes, fluorescent microscope; details: 100 mg talc; 3x PBS, 3x 0.2% EDTA washes
Procedure: The resulting mixtures were then washed with PBS and then washed with 0.2% EDTA.
3. Mix 1 mL of 100 μM of Avidin with 500 μL of 30.3 μM of Avidin Rhodamine (keep lights off).
4. […] Mix well to bring the dry talc powder to evenly distributed reaction solution.
8. Place tubes on the rotator and incubate overnight at 4° C.
5. Continue to wash all “b” labeled tubes with 0.2% EDTA. Wash 3× in 0.5 mL EDTA.
7. View slides under fluorescent microscope.

[2] = Example 3: binding Avidin to 100 mg sterile talc, Pierce 660 nm total protein assay of supernatants and washes
Procedure: Collect the supernatant liquid from two tubes containing the two highest concentrations of Avidin at varying points.
4. Run total protein assay using Pierce microplate kit and read plate in plate reader.
6. Wash all tubes in PBS two times, collecting the supernatant liquid from each wash ONLY from the two highest concentrations of Avidin (tubes labeled 1-2b, 1-2c, and 2-2b, 2-2c).
7. Continue to wash 3× with 0.5 mL of 0.2% EDTA.
8. Collect the supernatant from each wash and transfer to the new tubes only from the original tubes with the highest concentration of Avidin (50 μM and 5 μM). Collect only the FIRST wash with EDTA solution for the other tubes.
10. Run the total protein assay (see e.g., Example 1) using all the collected supernatant liquid.
The shape is similar to a nugget, and the calculations will substitute it's geometry with spheres. […] Less than 5% is below that range, and above that range.

[3] = Example 4: amount of Avidin saturating 100 mg talc, Pierce total protein assay of supernatant; format: binding
Excerpt: 2. Collect the supernatant from each tube but discard the pellet.
3. Run the Pierce total protein assay using the following dilutions of the collected supernatant.
4. Read plate in the plate reader (absorbance assay) at 660 nm wavelength.

[4] = Example 12: hot and cold Avidin mix binding to talc, repeat with controls, OD 450 nm
Procedure: The following Example repeated the hot/cold experiment shown in Example 10, with the addition of multiple controls.
1. Prepare 10 mL of 40 ng/mL (or […]) HRP Avidin in 1×PBS using 5.75 mg/mL or 32.5 μM of HRP Avidin stock solution.
6. Weigh 8 mg of Avidin (cold Avidin), then resuspend it in 2 mL of PBS that contains 40 ng/mL of “hot” Avidin. So the solution will now be 40 ng/mL hot Avidin+4 mg/mL of Cold Avidin. Label this tube as #1.
7. Make 3 mL of 1:10 dilution of solution in Tube #1 and make labeled Tube #2 containing 2.7 mL of 40 ng/mL in Hot Avidin solution in PBS+300 μL of Tube #1. The solution in the tube will contain 40 ng/mL of Hot Avidin+400 μg of Cold Avidin.
8. Make 1:2 dilution of solution in Tube #2 using as a diluted solvent of […] of Hot Avidin in PBS. Added 1 mL of Hot Avidin+1 mL of Tube #2. The final concentration will be 40 ng/mL of Hot Avidin+200 μg/mL of Cold Avidin. Label this tube as Tube #3.
9. Make 1:2 dilution of solution in Tube #3, using as a solvent of 40 ng/mL Hot Avidin in PBS Prepare 2 mL of solution: 1 mL of 40 ng/mL of Hot Avidin in PBS+1 mL of Tube #3 The final concentration will be 40 ng/mL of hot Avidin+100 μg/mL of Cold Avidin. Label this tube as Tube #4.
3. Wash the plate 3× with 300 μL PBS containing 10% FBS.
7. Add 100 μL of Stop Solution 2.
8. Read absorbance at 450 nm using the plate reader.

[5] = Example 14: talc bound to HRP- and cold Avidin, 48 hours incubation in PBS containing 10% FBS, OD 450 nm; format: physicochemical; details: 48 hours in PBS containing 10% FBS
Procedure: Purpose: To check how strong the conjugate of hot/cold Avidin to Talc is. […] Absorbance will be checked twice—once before washing with PBS containing 10% FBS and after 48 hours, washing will be done.
1. Prepare 10 mL of 40 ng/mL (or 260 μM) HRP Avidin in 1×PBS using 5.75 mg/mL or 32.5 uM of HRP Avidin stock solution.
6. Weigh 8 mg of Avidin (cold Avidin), then resuspend it in 2 mL of PBS containing 40 ng/mL of “hot” Avidin. So the solution will now be 40 ng/mL hot Avidin+4 mg/mL of Cold Avidin. Label this tube as #1.
14. […] Two identical microplates need to be set up, labeling them as: plate#I and plate#2. Design of the plate:
3. Wash both plates 3× with 300 μL PBS.
5. […] Mix constantly, cover plate with Aluminum foil.
6. Add 100 μL of TMB to samples in plate #1.
8. After incubation with TMB is over, add 100 μL of Stop Solution 2.
9. Read absorbance at 450 nm using the plate reader.
3. Collect 100 μL supernatant from samples except native controls and load on same plate.
4. Wash plate except supernatant samples 3× with 300 μL PBS.
6. Add 100 μL of TMB to all samples in plate#2.
8. After incubation with TMB is over add 100 μL of Stop Solution 2.

[6] = Coupling of avidin to talc, binding capacity (general description)

AVIDIN in supernatant after incubation ([2]; 198.4 μg Avidin + 100 mg talc): 13.7 μg/0.5 ml | Avidin binded to talc ([2]; 198.4 μg Avidin + 100 mg talc): 184.7 µg | Saturation of AVIDIN to the combine surface of 100 mg talc ([2]; 198.4 μg Avidin added): 2.48 μg/cm^2 | AVIDIN in supernatant after incubation ([2]; 198.4 μg Avidin in 0.5 ml + 100 mg talc): 27.4 µg/mL | Amount of Avidin removed by wash ([2]; 198.4 μg, 1st wash with EDTA): 15.8 µg/mL | Amount of Avidin removed by wash ([2]; 198.4 μg, 1st wash with PBS): 31.4 µg/mL | Amount of Avidin removed by wash ([2]; 198.4 μg, 2nd wash with EDTA): 19.8 µg/mL | Amount of Avidin removed by wash ([2]; 198.4 μg, 2nd wash with PBS): 27.6 µg/mL | Amount of Avidin removed by wash ([2]; 198.4 μg, 3rd wash with EDTA): 13 µg/mL | Amount of Avidin removed by wash ([2]; 198.4 μg, 3rd wash with PBS): 32.7 µg/mL | AVIDIN in supernatant after incubation ([2]; 1650.3 μg Avidin + 100 mg talc): 1185 μg/0.5 ml | Avidin binded to talc ([2]; 1650.3 μg Avidin + 100 mg talc): 465.3 µg | Saturation of AVIDIN to the combine surface of 100 mg talc ([2]; 1650.3 μg Avidin added): 6.25 μg/cm^2 | AVIDIN in supernatant after incubation ([2]; 1650.3 μg Avidin in 0.5 ml + 100 mg talc): 2370 µg/mL | Amount of Avidin removed by wash ([2]; 1650.3 μg, 1st wash with EDTA): 13.2 µg/mL | Amount of Avidin removed by wash ([2]; 1650.3 μg, 1st wash with PBS): 307.4 µg/mL | Amount of Avidin removed by wash ([2]; 1650.3 μg, 2nd wash with EDTA): 12.3 µg/mL | Amount of Avidin removed by wash ([2]; 1650.3 μg, 2nd wash with PBS): 67.3 µg/mL | Amount of Avidin removed by wash ([2]; 1650.3 μg, 3rd wash with EDTA): 13.2 µg/mL | Amount of Avidin removed by wash ([2]; 1650.3 μg, 3rd wash with PBS): 40.3 µg/mL | saturation of talc particles ([2]; highest concentration of Avidin (50 μM), 100 mg talc): not fully saturated | Efficiency of binding, OD ([4]; 1 mg talc, Cold Avidin only 100 ug/mL): 0.31 OD | Efficiency of binding, OD ([4]; 1 mg talc, Cold Avidin only 200 ug/mL): 0.27 OD | Efficiency of binding, OD ([4]; 1 mg talc, Cold Avidin only 400 ug/mL): 0.3 OD | Efficiency of binding, OD ([4]; 1 mg talc, Cold Avidin only 4 mg/mL): 0.33 OD | Efficiency of binding, OD ([4]; 5 mg talc, Cold Avidin only 100 ug/mL): 1.38 OD | Efficiency of binding, OD ([4]; 5 mg talc, Cold Avidin only 200 ug/mL): 1.4 OD | Efficiency of binding, OD ([4]; 5 mg talc, Cold Avidin only 400 ug/mL): 1.01 OD | Efficiency of binding, OD ([4]; 5 mg talc, Cold Avidin only 4 mg/mL): 1.23 OD | avidin bound by talc [6]: > 2 nanograms of avidin per mg of talc
Substance: Avidin: Avidin from egg white (Sigma, Cat. A9275), unlabeled (cold) Avidin
binding to talc after washing [1]: remained bound to talc despite multiple washes | release of Avidin from talc surface during washes ([2]; 3x PBS, 3x 0.2% EDTA): Only first wash removed quantifiable amounts of Avidin from talc surface | Avidin binded with talc ([3]; 330 μg/ml Avidin added): 110.4 µg/mL | Avidin in supernatant ([3]; 330 μg/ml Avidin added): 219.6 μg, ml | Avidin per talc surface ([3]; 330 μg/ml Avidin added): 1.5 μg/cm2 | Avidin binded with talc ([3]; 3300 μg/ml Avidin added): 2452.7 µg/mL | Avidin in supernatant ([3]; 3300 μg/ml Avidin added): 847.3 μg, ml | Avidin per talc surface ([3]; 3300 μg/ml Avidin added): 33.0 μg/cm2 and 33 μg/cm2 | Avidin binded with talc ([3]; 6600 μg/ml Avidin added): 4631.5 µg/mL | Avidin in supernatant ([3]; 6600 μg/ml Avidin added): 1968.5 μg, ml | Avidin per talc surface ([3]; 6600 μg/ml Avidin added): 62.3 μg/cm2 | Avidin binded with talc ([3]; 13200 μg/ml Avidin added): 7952.7 µg/mL | Avidin in supernatant ([3]; 13200 μg/ml Avidin added): 5247.3 μg, ml | Avidin per talc surface ([3]; 13200 μg/ml Avidin added): 106.9 μg/cm2 | Avidin binded with talc ([3]; 19800 μg/ml Avidin added): 12166.7 µg/mL | Avidin in supernatant ([3]; 19800 μg/ml Avidin added): 7633.3 μg, ml | Avidin per talc surface ([3]; 19800 μg/ml Avidin added): 163.5 μg/cm2 | saturation of talc particles ([3]; increasing concentrations of Avidin): not fully saturated | stability of binding of Avidin to talc [5]: unchanged at 48 hours
